Results on one compound are retold here after patent US20070203085A1, “Methods For Interfering With Fibrosis” (priority 2004, published 2007).

For experiment [1], the system named is sgk1+/+ and sgk1−/− mice. In words: DOCA/high salt treatment of sgk1+/+ and sgk1−/− mice: blood pressure, plasma electrolytes, salt intake. Format: in vivo. The procedure: To explore whether SGK1 may be involved in the signalling of cardiac fibrosis a pellet continuously releasing DOCA (2.4 mg/day) was implanted into both sgk1+/+ and sgk1−/− mice along with 1% NaCl in the drinking water.
Mice deficient in SGK1 (sgk1−/−) were generated as previously described 9. Wild type (sgk1+/+) and SGK1 knockout (sgk1−/−) mice were implanted with a 21 day release 50 mg DOCA pellet (Innovative Research of America, Sarasota, Fla.) in the neck area (28) during anesthesia (intraperitoneal medetomidin 0.5 mg/kg+midazolam 5 mg/kg+fentanyl 0.05 mg/kg which was reversed by subcutaneous atipamezol 2.5 mg/kg+flumazenil 0.5 mg/kg+naloxon 1.2 mg/kg). One day before implantation of DOCA pellets, sgk1−/− and sgk1+/+ mice were weighed and placed individually in metabolic cages (Tecniplast Hohenpeissenberg, Germany) for basal 24 hour urine collection. Mice had free access to a standard mouse diet (Altromin, Heidenau, Germany) and tap water and/or 1% or 2% NaCl. The inner wall of the metabolic cages was siliconized and urine was collected under water-saturated oil. Systolic arterial blood pressure was determined by the tail-cuff method before and on days 1, 2, 4, 6, 10 and 14 of DOCA/1% NaCl treatment 29. On day 18 of DOCA/high salt treatment, 24 hour urine and body weight were again determined, animals anesthetized (intraperitoneal ketamine and xylazine) and 200 μl of blood withdrawn into heparinized capillaries by puncturing the retro-orbital plexus. Plasma and urinary concentrations of Na+ and K+ were measured by flame photometer (ELEX 6361, Eppendorf, Germany), Cl— concentrations by electrometric titration (Chloridometer 6610, Eppendorf, Germany), Ca2+, phosphorus and creatinine were assessed by commercial diagnostic kits (Sigma, Munich, Germany).

Experiment [2] relates to sgk1+/+ and sgk1−/− mice. Briefly: Cardiac fibrosis by microscopy (H&E and Masson's trichrome) after DOCA/high salt. Format: in vivo. The settings on record: 18 day DOCA/high salt. The procedure:
Hearts from untreated or DOCA/high salt treated (18 days) sgk1+/+ and sgk1−/− mice were quickly removed under anesthesia, the weight determined and fixed in 4% paraformaldehyde/0.1 M sodium phosphate buffer (pH 7.2) overnight and embedded in paraffin. Dewaxed 5 μm thick heart muscle sections were stained with H&E and Masson's trichrome (30). Stained paraffin sections were analysed on a Zeiss Axioplan microscope (Zeiss, Jena, Germany). Areas were measured on digitized images using an Axiocam video camera (Zeiss, Jena, Germany) using the manufacture's software (Axiovision, Zeiss, Jena, Germany). Total tissue areas were measured with a 4× objective; fibrotic areas were identified and quantified using a 20× objective. The degree of fibrosis was then calculated as a percentage of total tissue area.

For experiment [3], the system named is sgk1+/+ and sgk1−/− mice. Briefly: Cardiac gene transcription after DOCA/high salt (microarray analysis, real-time PCR). The class given is in vivo. The protocol: Total RNA was isolated from hearts obtained from untreated or DOCA/high salt (48 h) treated sgk1+/+ and sgk1−/− mice using the Qiagen RNeasy Fibrous Tissue Midi Kit according to the manufacture's instructions (Qiagen, Hilden, Germany). Using total RNA from hearts of DOCA/high salt or sham-treated sgk1−/− and sgk1+/+ mice, second-strand syntheses were generated using a commercially available kit (Invitrogen Life Technologies, Rockville, Md.) and an oligo d(T)24 T7 primer. cRNA was generated using biotin-labelled CTP and UTP by in vitro transcription using a T7 promoter-coupled double stranded cDNA as template and the T7 RNA transcript labelling kit (ENZO Diagnostics, Farmingdale, N.Y.). The cRNA was fragmented and hybridised to the mouse genome MOE430A oligonucleotide array chip (Affymetrix, Santa Clara, Calif.). The array chips were then stained using phycoerythrin conjugated streptavidin (Molecular Probes, Invitrogen Life Technologies, Rockville, Md.) and the fluorescence intensities were determined using a laser confocal scanner (Agilent, Affymetrix, Santa Clara, Calif.). The intensity of the scanned images was analysed using Microarray Suite Version 5 (Affymetrix, Santa Clara, Calif.). Global scaling was applied to all arrays such that the mean intensity of each array was equivalent. In global scaling, the raw signal value of each probe cell was multiplied by a scaling factor.
(In qPCR the cycle at which signal appears reflects the starting amount.)

For experiment [4], the system named is CTGF. In words: Cardiac CTGF expression by Western blotting after DOCA/salt. Format: in vivo, mice. The settings on record: for CTGF expression in cardiac tissue (Western blot): DOCA/high salt for 18 days. The protocol: Whole hearts from untreated and DOCA/high salt treated (18 days) sgk1+/+ and sgk1−/− mice were removed and immediately frozen in liquid nitrogen, the tissue was then homogenised using a glass homogeniser in lysis buffer containing 50 mM Tris-HCl, pH 7.4, 100 mM NaCl, 1 mM EDTA, 1 mM EGTA, 50 mM sodium fluoride, 5 mM sodium pyrophosphate, 1 mM sodium orthovanadate, 1% Triton X-100, 1% sodium deoxycholate, 1% sodium doecyl sulphate and protease cocktail inhibitor (Roche, Basel, Switzerland), the homogenates were centrifuged at 10,000 rpm, 4° C. for 15 min, the supernatant was removed and used for Western blotting. sgk1+/+ and sgk1−/− mouse lung fibroblasts in 60 mm culture dishes were serum deprived for 18 h prior to the addition of DOCA (10 μM), 24 h later the cells were lysed. Whole cell lysates (50 μg) and heart homogenates (70 μg) were separated by SDS-page (10% Tris-Glycine), transferred to nitrocellulose membranes, blocked for 1 h in blocking buffer (5% fat-free milk in PBS containing 0.1% Tween) and incubated overnight at 4° C. with a goat polyclonal CTGF primary antibody (diluted 1:400 in blocking buffer, Santa Cruz, Heidelberg, Germany). After incubation with a HRP-conjugated anti-goat secondary antibody (Santa Cruz, Heidelberg, Germany) visualization with ECL was performed according to manufacture's instructions (Amersham, Freiburg, Germany). Membranes were also probed with a primary β-tubulin (Santa Cruz, Heidelberg, Germany) antibody as a loading control. Densitometric analysis of CTGF was performed using Scion Image (Scion, Md., USA) and normalized using β-tubulin.
(Immunoblotting shows a protein as a band on a membrane.)

In experiment [5] the test system is CTGF. In words: CTGF expression in primary mouse lung fibroblasts after DOCA stimulation (Western blot). Format: cell-based. The settings on record: DOCA 10 μM, 24 h; sgk1+/+ and sgk1−/− cells. The procedure:
To harvest lung fibroblasts from sgk1+/+ and sgk1−/− mice (8-14 weeks old), whole lungs were removed and transferred to 90 mm cell culture dishes containing 2 ml of DMEM supplemented with 10% fetal calf serum, 100 U/ml Penicillin, […] Streptomycin and 2 mM L-glutamine (Gibco-Invitrogen, Karlsruhe, Germany). The tissue was cut into small pieces and cultured under standard cell culture conditions (37° C., 5% CO2). Cell growth was observed 2-4 days after initial plating. Fibroblasts were identified by positive staining for fibronectin and used in experiments between passages 2-6. Increase of SGK1 mRNA by DOCA treatment and absence of SGK1 in sgk1−/− mice lung fibroblasts was confirmed by realtime PCR (data not shown). […]

For the compound `CC(=O)OCC(=O)[C@H]1CC[C@H]2[C@@H]3CCC4=CC(=O)CC[C@]4(C)[C@H]3CC[C@]12C` [DOCA], the hypokalemia entry in the experiment on sgk1+/+ and sgk1−/− mice [1] (DOCA/high salt for 18 days, sgk1+/+ vs sgk1−/− mice) is reported as “significant hypokalemia in sgk1+/+ but not in sgk1−/− mice”. Further, in the experiment with sgk1+/+ and sgk1−/− mice [1] (sgk1+/+ mice, after implanting the DOCA pellet), the “salt intake from bottle 2 (1% NaCl)” value was “pronounced increase in salt intake”. For the same compound, the blood pressure result in the experiment on sgk1+/+ and sgk1−/− mice [1] (sgk1−/− and sgk1+/+ mice, DOCA/high salt for 18 days) was “statistically significant increases in blood pressure”. Also, the “fibrosis of the heart” value is recorded as “marked fibrosis of the heart” with sgk1+/+ and sgk1−/− mice [2] (sgk1+/+ mice); “without any appreciable effect on the heart” with sgk1+/+ and sgk1−/− mice [2] (sgk1−/− mice). For the same compound, the “fold increase in SGK1/GAPDH copy number (SGK1 transcription)” value in the experiment with sgk1+/+ and sgk1−/− mice [3] (heart, sgk1+/+ mice, 48 h DOCA/high salt vs untreated sgk1+/+ mice, real-time PCR) is 2.10±0.14 fold. For the same compound, the “induction of fibrosis genes (procollagens, integrin α5, proteoglycan 4, CTGF), microarray” value with sgk1+/+ and sgk1−/− mice [3] (sgk1+/+ mice, 48 h DOCA/high salt) is “induced several genes involved in the pathogenesis of fibrosis”; in the experiment with sgk1+/+ and sgk1−/− mice [3] (sgk1−/− mice, DOCA/high salt), “none of these genes were induced”. Further, the “cardiac CTGF expression, CTGF/β-tubulin densitometric analysis” value was 4.7±1.0 arbitrary units in the experiment with CTGF [4] (sgk1+/+ mice, DOCA/1% salt (untreated: 0.9±0.2), P<0.01) and 1.7±0.7 arbitrary units in the experiment with CTGF [4] (sgk1−/− mice, DOCA/high salt (untreated: 1.5±1.0)). The “CTGF expression in cardiac tissue (Western blot)” value in the experiment with CTGF [4] (sgk1+/+ mice) was “markedly upregulated CTGF expression”; in the experiment on CTGF [4] (sgk1−/− mice), “unaltered”. The “CTGF levels in primary mouse lung fibroblasts” value in the experiment with CTGF [5] is “elevated CTGF levels only in the sgk1+/+ cells”.
